Source: patent US11697648B2, “Fused pyrimidine pyridinone compounds as JAK inhibitors” (THERAVANCE BIOPHARMA R&D IP, LLC, priority 2019, dated 2023)

How the values were obtained:
JAK1 = JAK1 (Homo sapiens (Human), UniProt P23458); assay: Biochemical JAK1 kinase assay (LanthaScreen)
Summary of the method: (§1)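 GST-JAK + GFP-STAT1 peptide, HEPES pH 7.5/MgCl2/EGTA/Brij-35 buffer; cpd preincubation 1 h RT; ATP start, 1 h RT; stop with 10 mM EDTA + 2 nM Tb-anti-pSTAT1; TR-FRET 520/495. 4-parameter IC50 → pKi (Cheng-Prusoff).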

JAK2 = JAK2 (Homo sapiens (Human), UniProt O60674); assay: Biochemical JAK2 kinase assay (LanthaScreen)
Chain of JAK2 (O60674 whole entry): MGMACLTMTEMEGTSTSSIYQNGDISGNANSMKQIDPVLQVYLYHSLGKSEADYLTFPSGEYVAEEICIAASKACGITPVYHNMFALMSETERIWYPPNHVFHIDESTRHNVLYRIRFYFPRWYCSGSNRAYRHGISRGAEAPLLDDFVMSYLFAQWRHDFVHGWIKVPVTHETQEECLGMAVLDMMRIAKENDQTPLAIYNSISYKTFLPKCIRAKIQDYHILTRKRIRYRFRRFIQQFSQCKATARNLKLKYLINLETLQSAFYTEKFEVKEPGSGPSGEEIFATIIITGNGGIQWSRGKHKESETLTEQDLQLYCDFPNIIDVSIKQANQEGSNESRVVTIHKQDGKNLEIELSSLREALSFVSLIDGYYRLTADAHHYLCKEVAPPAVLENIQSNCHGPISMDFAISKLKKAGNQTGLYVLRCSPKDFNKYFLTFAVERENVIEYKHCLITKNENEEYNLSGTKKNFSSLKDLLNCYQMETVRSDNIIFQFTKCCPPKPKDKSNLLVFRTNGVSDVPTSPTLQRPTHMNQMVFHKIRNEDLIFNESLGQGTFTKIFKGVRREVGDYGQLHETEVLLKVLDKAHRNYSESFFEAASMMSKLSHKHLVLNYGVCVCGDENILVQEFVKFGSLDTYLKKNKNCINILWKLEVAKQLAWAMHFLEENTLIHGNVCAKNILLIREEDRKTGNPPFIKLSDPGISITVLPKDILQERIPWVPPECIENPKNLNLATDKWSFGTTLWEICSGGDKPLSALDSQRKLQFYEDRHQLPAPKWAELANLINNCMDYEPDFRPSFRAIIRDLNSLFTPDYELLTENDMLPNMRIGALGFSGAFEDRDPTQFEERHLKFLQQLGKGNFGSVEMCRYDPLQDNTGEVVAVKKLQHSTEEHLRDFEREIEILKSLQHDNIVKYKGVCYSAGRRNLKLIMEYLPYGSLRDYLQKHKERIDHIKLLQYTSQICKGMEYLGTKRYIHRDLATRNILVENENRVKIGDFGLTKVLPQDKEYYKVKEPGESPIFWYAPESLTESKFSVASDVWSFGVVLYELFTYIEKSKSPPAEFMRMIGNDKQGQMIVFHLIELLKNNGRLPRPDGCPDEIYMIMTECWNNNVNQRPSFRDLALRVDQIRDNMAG
Summary of the method: as §1

JAK3 = JAK3 (Homo sapiens (Human), UniProt P52333); assay: Biochemical JAK3 kinase assay (LanthaScreen); details: for JAK3 (pKi)-JAK1 (pKi): selectivity JAK3 over JAK1, difference of pKi
Chain of JAK3 (P52333 whole entry): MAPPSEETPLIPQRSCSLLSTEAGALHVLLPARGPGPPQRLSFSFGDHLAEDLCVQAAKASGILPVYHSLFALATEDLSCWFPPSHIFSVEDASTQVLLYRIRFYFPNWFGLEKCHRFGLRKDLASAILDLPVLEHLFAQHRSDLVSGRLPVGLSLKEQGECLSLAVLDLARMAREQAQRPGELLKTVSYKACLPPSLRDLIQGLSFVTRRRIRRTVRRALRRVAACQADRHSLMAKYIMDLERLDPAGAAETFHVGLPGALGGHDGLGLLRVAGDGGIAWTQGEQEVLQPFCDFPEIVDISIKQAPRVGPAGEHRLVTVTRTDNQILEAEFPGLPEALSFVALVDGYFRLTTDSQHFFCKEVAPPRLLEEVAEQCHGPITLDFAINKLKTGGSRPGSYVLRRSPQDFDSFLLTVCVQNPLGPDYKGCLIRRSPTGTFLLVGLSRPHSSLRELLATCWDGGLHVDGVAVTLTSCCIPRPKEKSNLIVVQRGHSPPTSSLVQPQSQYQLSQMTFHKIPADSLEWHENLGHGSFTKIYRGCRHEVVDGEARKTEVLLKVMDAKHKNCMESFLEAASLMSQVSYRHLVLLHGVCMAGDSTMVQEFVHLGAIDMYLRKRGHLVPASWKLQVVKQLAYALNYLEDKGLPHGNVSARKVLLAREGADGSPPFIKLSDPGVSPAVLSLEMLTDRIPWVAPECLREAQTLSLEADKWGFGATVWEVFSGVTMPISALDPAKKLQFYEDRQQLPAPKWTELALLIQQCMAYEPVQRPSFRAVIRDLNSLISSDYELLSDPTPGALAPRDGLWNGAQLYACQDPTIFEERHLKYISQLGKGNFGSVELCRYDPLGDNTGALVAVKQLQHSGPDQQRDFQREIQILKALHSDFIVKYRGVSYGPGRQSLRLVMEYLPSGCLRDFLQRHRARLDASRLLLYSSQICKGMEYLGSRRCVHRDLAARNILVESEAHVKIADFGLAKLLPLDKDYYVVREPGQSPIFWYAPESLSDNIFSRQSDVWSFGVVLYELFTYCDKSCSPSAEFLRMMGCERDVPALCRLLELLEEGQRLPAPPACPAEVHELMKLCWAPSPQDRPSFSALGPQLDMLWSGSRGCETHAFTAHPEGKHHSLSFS
Summary of the method: as §1

Tyk2 = Tyk2 (Homo sapiens (Human), UniProt P29597); assay: Biochemical Tyk2 kinase assay (LanthaScreen)
Chain of Tyk2 (P29597 whole entry): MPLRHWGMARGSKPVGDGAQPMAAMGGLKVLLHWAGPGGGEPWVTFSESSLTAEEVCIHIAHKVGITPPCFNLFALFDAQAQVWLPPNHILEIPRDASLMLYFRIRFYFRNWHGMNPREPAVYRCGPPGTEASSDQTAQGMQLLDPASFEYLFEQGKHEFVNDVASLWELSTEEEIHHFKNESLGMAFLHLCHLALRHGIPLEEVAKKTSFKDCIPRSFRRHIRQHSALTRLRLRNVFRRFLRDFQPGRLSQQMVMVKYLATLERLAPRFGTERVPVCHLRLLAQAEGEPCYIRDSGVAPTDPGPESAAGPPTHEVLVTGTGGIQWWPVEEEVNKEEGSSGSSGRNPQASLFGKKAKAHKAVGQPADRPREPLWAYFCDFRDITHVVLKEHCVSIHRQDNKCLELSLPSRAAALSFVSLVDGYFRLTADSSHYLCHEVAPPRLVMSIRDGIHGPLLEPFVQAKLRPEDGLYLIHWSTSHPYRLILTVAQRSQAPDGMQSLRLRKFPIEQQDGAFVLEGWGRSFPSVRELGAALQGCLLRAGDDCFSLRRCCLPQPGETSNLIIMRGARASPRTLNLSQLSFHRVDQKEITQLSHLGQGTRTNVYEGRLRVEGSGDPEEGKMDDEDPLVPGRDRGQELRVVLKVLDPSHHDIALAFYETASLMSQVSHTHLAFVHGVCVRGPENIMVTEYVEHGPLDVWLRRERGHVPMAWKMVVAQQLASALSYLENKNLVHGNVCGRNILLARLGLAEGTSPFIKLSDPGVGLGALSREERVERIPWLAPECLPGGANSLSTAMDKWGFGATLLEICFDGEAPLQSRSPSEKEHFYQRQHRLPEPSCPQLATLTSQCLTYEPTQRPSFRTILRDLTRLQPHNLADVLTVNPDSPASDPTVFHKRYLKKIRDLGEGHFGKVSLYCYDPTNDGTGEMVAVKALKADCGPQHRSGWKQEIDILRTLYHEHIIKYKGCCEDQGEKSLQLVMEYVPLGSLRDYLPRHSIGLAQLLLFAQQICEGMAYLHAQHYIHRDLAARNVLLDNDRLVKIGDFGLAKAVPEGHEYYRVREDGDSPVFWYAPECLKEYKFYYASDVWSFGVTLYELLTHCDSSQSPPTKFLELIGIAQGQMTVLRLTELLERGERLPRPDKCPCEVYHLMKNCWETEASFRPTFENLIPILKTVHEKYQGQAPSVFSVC
Summary of the method: as §1

[1] = test system: IL-2 stimulated STAT5 phosphorylation in Tall-1 human T cell line (JAK3); assay: Cellular JAK3 potency assay: inhibition of IL-2 stimulated pSTAT5 in Tall-1 T cells; assay type: cell-based; details: IL-2 stimulated pSTAT5, Tall-1 T cells
Summary of the method: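 AlphaLISA SureFire Ultra measures STAT5 Tyr694/699 phosphorylation in lysed Tall-1 human T cells. Cells were exposed to compound for 1 h at 37 °C before a 30 min IL-2 challenge (300 ng/ml final). Values are pIC50 means with standard deviation from signal-versus-concentration curves.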

Caco-2 cell monolayers = assay: Caco-2 permeation assay; assay type: in vitro ADME; details: 5 μM, A-B direction, with Verapamil (25 μM)
Summary of the method: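 Passive A-to-B permeability with P-gp inhibited by verapamil (25 μM); compound at 5 μM, n=2. Both compartments sampled at t0 and t120 and quantified by LC-MS/MS, giving apparent permeability in cm/sec from flux, area and concentration.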

Chain of JAK1 (P23458 whole entry): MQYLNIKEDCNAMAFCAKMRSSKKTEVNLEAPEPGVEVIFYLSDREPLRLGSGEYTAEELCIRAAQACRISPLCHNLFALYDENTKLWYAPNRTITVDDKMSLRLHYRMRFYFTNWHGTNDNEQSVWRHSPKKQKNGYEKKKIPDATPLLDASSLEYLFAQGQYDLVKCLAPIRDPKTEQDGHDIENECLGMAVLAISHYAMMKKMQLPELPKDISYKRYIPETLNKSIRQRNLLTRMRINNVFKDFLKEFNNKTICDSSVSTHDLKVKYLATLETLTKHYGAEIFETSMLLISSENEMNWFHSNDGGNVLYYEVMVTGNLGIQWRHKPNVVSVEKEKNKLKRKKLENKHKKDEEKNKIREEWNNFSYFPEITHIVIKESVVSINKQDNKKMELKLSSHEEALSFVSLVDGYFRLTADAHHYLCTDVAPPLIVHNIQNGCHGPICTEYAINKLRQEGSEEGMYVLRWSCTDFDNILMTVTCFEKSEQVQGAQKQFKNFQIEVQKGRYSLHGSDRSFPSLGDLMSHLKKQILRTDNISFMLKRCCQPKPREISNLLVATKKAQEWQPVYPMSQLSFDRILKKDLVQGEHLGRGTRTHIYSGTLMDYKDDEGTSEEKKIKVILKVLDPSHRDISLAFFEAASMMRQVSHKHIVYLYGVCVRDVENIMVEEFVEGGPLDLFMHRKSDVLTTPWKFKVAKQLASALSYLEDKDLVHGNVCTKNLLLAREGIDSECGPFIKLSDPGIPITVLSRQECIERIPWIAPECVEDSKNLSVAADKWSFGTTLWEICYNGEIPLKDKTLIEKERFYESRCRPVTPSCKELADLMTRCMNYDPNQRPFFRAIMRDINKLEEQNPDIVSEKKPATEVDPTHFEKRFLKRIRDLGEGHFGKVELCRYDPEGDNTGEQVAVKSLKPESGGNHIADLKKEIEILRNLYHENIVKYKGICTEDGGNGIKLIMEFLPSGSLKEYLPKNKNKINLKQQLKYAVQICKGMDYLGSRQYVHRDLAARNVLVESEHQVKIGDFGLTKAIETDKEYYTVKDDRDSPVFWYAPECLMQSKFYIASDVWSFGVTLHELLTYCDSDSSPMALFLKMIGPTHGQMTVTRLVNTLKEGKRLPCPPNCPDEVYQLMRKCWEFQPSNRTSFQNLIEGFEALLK

| Structure (SMILES) | JAK 1 (pKi) (JAK1) | JAK 2 (pKi) (JAK2) | JAK 3 (pKi) (JAK3) | JAK3 (pKi)-JAK1 (pKi) (JAK3) | Tyk 2 (pKi) (Tyk2) | Tall-1 (pIC50) [1] | Caco Kp (Caco-2 cell monolayers) |
| --- | --- | --- | --- | --- | --- | --- | --- |
| C=CC(=O)N1CC(CCn2c(=O)ccc3cnc(Nc4cccc(CN5CCN(S(=O)(=O)CC#N)CC5)c4)nc32)C1 [Example 125] | E (E represents a pKi value of 7 or below (Ki of 100 nM or above)) | E (E represents a pKi value of 7 or below (Ki of 100 nM or above)) | A (A represents a pKi value≥10 (Ki≤0.1 nM)) | A (A represents a value of 3 or above) | E (E represents a pKi value of 7 or below (Ki of 100 nM or above)) | B (B represents a pC50 value between 6.7 (included) and 7.5 (IC50 between 200 nM and 32 nM)) | B (B represents a value between 5×10^−6 and 10×10^−6 cm/sec) |
| C=CC(=O)N1CC(CCn2c(=O)ccc3cnc(Nc4cccc(CN(C)C)c4)nc32)C1 [Example 90] | E (E represents a pKi value of 7 or below (Ki of 100 nM or above)) | E (E represents a pKi value of 7 or below (Ki of 100 nM or above)) | B (B represents pKi value between 9 and 10 (Ki between 1 nM and 0.1 nM)) | A (A represents a value of 3 or above) | E (E represents a pKi value of 7 or below (Ki of 100 nM or above)) | B (B represents a pC50 value between 6.7 (included) and 7.5 (IC50 between 200 nM and 32 nM)) | A (A represents a value below 5×10^−6 cm/sec) |
| C=CC(=O)N1CC(CCn2c(=O)ccc3cnc(Nc4ccc(-n5cccn5)cc4)nc32)C1 [Example 66] | E (E represents a pKi value of 7 or below (Ki of 100 nM or above)) | E (E represents a pKi value of 7 or below (Ki of 100 nM or above)) | B (B represents pKi value between 9 and 10 (Ki between 1 nM and 0.1 nM)) | A (A represents a value of 3 or above) | E (E represents a pKi value of 7 or below (Ki of 100 nM or above)) | B (B represents a pC50 value between 6.7 (included) and 7.5 (IC50 between 200 nM and 32 nM)) | C (C represents a value between 10×10^−6 and 30×10^−6 cm/sec) |
| C=CC(=O)N1CC(CCn2c(=O)ccc3cnc(Nc4ccc(N5CCN(S(=O)(=O)CC#N)CC5)cc4)nc32)C1 [Example 101] | E (E represents a pKi value of 7 or below (Ki of 100 nM or above)) | E (E represents a pKi value of 7 or below (Ki of 100 nM or above)) | A (A represents a pKi value≥10 (Ki≤0.1 nM)) | A (A represents a value of 3 or above) | E (E represents a pKi value of 7 or below (Ki of 100 nM or above)) | B (B represents a pC50 value between 6.7 (included) and 7.5 (IC50 between 200 nM and 32 nM)) | A (A represents a value below 5×10^−6 cm/sec) |
| C=CC(=O)N1CC(CCn2c(=O)ccc3cnc(Nc4cccc(CN5CCSCC5)c4)nc32)C1 [Example 85] | E (E represents a pKi value of 7 or below (Ki of 100 nM or above)) | E (E represents a pKi value of 7 or below (Ki of 100 nM or above)) | A (A represents a pKi value≥10 (Ki≤0.1 nM)) | A (A represents a value of 3 or above) | E (E represents a pKi value of 7 or below (Ki of 100 nM or above)) | B (B represents a pC50 value between 6.7 (included) and 7.5 (IC50 between 200 nM and 32 nM)) | C (C represents a value between 10×10^−6 and 30×10^−6 cm/sec) |
| C=CC(=O)N1CC(CCn2c(=O)ccc3cnc(Nc4ccc(N5CCCCC5)cc4)nc32)C1 [Example 143] | E (E represents a pKi value of 7 or below (Ki of 100 nM or above)) | E (E represents a pKi value of 7 or below (Ki of 100 nM or above)) | A (A represents a pKi value≥10 (Ki≤0.1 nM)) | A (A represents a value of 3 or above) | E (E represents a pKi value of 7 or below (Ki of 100 nM or above)) | B (B represents a pC50 value between 6.7 (included) and 7.5 (IC50 between 200 nM and 32 nM)) | C (C represents a value between 10×10^−6 and 30×10^−6 cm/sec) |
| C=CC(=O)N1CC(CCn2c(=O)ccc3cnc(Nc4ccc(N5CCN(S(=O)(=O)NC)CC5)cc4)nc32)C1 [Example 96] | E (E represents a pKi value of 7 or below (Ki of 100 nM or above)) | E (E represents a pKi value of 7 or below (Ki of 100 nM or above)) | A (A represents a pKi value≥10 (Ki≤0.1 nM)) | A (A represents a value of 3 or above) | E (E represents a pKi value of 7 or below (Ki of 100 nM or above)) | B (B represents a pC50 value between 6.7 (included) and 7.5 (IC50 between 200 nM and 32 nM)) | A (A represents a value below 5×10^−6 cm/sec) |
